# Experimental data reported in PubChem BioAssay (NCI).
#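 Briefly, cells in 96-well plates were exposed to five compound concentrations for 48 h, and endpoints were estimated by linear interpolation. TGI: total growth inhibition.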
# Columns and labels:
# Test in all cases: DTP human tumour cell line panel, 48 h
# HCT-116 colon = system: HCT-116 colon
# A549 NSCLC = system: A549 NSCLC
# HCC-2998 colon = system: HCC-2998 colon
# OVCAR-4 ovarian = system: OVCAR-4 ovarian
# A498 renal = system: A498 renal
# SNB-75 CNS = system: SNB-75 CNS
# NCI-H460 lung = system: NCI-H460 lung
# T-47D breast = system: T-47D breast
# MOLT-4 leukemia = system: MOLT-4 leukemia
# SN12C renal = system: SN12C renal
# SK-MEL-28 melanoma = system: SK-MEL-28 melanoma
# UO-31 renal = system: UO-31 renal
# DU-145 prostate = system: DU-145 prostate
# MDA-MB-231 breast = system: MDA-MB-231 breast
# BT-549 breast = system: BT-549 breast
# SK-MEL-2 melanoma = system: SK-MEL-2 melanoma
# HOP-92 NSCLC = system: HOP-92 NSCLC
# UACC-62 melanoma = system: UACC-62 melanoma
# SR leukemia = system: SR leukemia
# COLO 205 colon = system: COLO 205 colon
# LOX IMVI melanoma = system: LOX IMVI melanoma
# OVCAR-3 ovarian = system: OVCAR-3 ovarian
# KM12 colon = system: KM12 colon
# MDA-MB-435 = system: MDA-MB-435
# RXF 393 renal = system: RXF 393 renal
# EKVX NSCLC = system: EKVX NSCLC
# RPMI-8226 leukemia = system: RPMI-8226 leukemia
# SF-268 CNS = system: SF-268 CNS
# UACC-257 melanoma = system: UACC-257 melanoma
# SK-MEL-5 melanoma = system: SK-MEL-5 melanoma
# CAKI-1 renal = system: CAKI-1 renal
# SNB-19 CNS = system: SNB-19 CNS
# PC-3 prostate = system: PC-3 prostate
# K-562 leukemia = system: K-562 leukemia
# HOP-62 NSCLC = system: HOP-62 NSCLC
# MDA-N = system: MDA-N
# MALME-3M melanoma = system: MALME-3M melanoma
# TK-10 renal = system: TK-10 renal
# SW-620 colon = system: SW-620 colon
# ACHN renal = system: ACHN renal
# 786-0 renal = system: 786-0 renal
# NCI-H522 lung = system: NCI-H522 lung
# CCRF-CEM leukemia = system: CCRF-CEM leukemia
# M14 melanoma = system: M14 melanoma
# SF-295 CNS = system: SF-295 CNS
# NCI-H23 lung = system: NCI-H23 lung
# OVCAR-5 ovarian = system: OVCAR-5 ovarian
# HCT-15 colon = system: HCT-15 colon
# MCF7 breast = system: MCF7 breast
# U251 CNS = system: U251 CNS
# HS 578T breast = system: HS 578T breast
# SK-OV-3 ovarian = system: SK-OV-3 ovarian
# SF-539 CNS = system: SF-539 CNS
# IGROV1 ovarian = system: IGROV1 ovarian
# HL-60(TB) leukemia = system: HL-60(TB) leukemia
# NCI-H226 lung = system: NCI-H226 lung
# HT29 colon = system: HT29 colon
# OVCAR-8 ovarian = system: OVCAR-8 ovarian
# NCI/ADR-RES ovarian = system: NCI/ADR-RES ovarian
smiles,measurement,setting,value
CCOC(=O)c1cc2c(ccc3cc(C(=O)OCC)[nH]c32)[nH]1,TGI,HCT-116 colon,> 100 µM
same,TGI,A549 NSCLC,> 100 µM
same,TGI,HCC-2998 colon,> 100 µM
same,TGI,OVCAR-4 ovarian,32.4 µM
same,TGI,A498 renal,> 100 µM
same,TGI,SNB-75 CNS,41.8 µM
same,TGI,NCI-H460 lung,> 100 µM
same,TGI,T-47D breast,> 100 µM
same,TGI,MOLT-4 leukemia,> 100 µM
same,TGI,SN12C renal,89.1 µM
same,TGI,SK-MEL-28 melanoma,25.7 µM
same,TGI,UO-31 renal,> 100 µM
same,TGI,DU-145 prostate,> 100 µM
same,TGI,MDA-MB-231 breast,28.7 µM
same,TGI,BT-549 breast,> 100 µM
same,TGI,SK-MEL-2 melanoma,> 100 µM
same,TGI,HOP-92 NSCLC,> 100 µM
same,TGI,UACC-62 melanoma,> 100 µM
same,TGI,SR leukemia,45.3 µM
same,TGI,COLO 205 colon,> 100 µM
same,TGI,LOX IMVI melanoma,> 100 µM
same,TGI,OVCAR-3 ovarian,> 100 µM
same,TGI,KM12 colon,> 100 µM
same,TGI,MDA-MB-435,> 100 µM
same,TGI,RXF 393 renal,66.8 µM
same,TGI,EKVX NSCLC,> 100 µM
same,TGI,RPMI-8226 leukemia,> 100 µM
same,TGI,SF-268 CNS,> 100 µM
same,TGI,UACC-257 melanoma,> 100 µM
same,TGI,SK-MEL-5 melanoma,98.4 µM
same,TGI,CAKI-1 renal,> 100 µM
same,TGI,SNB-19 CNS,74.6 µM
same,TGI,PC-3 prostate,> 100 µM
same,TGI,K-562 leukemia,> 100 µM
same,TGI,HOP-62 NSCLC,59 µM
same,TGI,MDA-N,> 100 µM
same,TGI,MALME-3M melanoma,> 100 µM
same,TGI,TK-10 renal,> 100 µM
same,TGI,SW-620 colon,> 100 µM
same,TGI,ACHN renal,> 100 µM
same,TGI,786-0 renal,31.3 µM
same,TGI,NCI-H522 lung,> 100 µM
same,TGI,CCRF-CEM leukemia,> 100 µM
same,TGI,M14 melanoma,> 100 µM
same,TGI,SF-295 CNS,> 100 µM
same,TGI,NCI-H23 lung,> 100 µM
same,TGI,OVCAR-5 ovarian,> 100 µM
same,TGI,HCT-15 colon,> 100 µM
same,TGI,MCF7 breast,> 100 µM
same,TGI,U251 CNS,19.1 µM
same,TGI,HS 578T breast,58.6 µM
same,TGI,SK-OV-3 ovarian,> 100 µM
same,TGI,SF-539 CNS,29.6 µM
same,TGI,IGROV1 ovarian,> 100 µM
N#Cc1ccc(Oc2nc3ccccc3nc2-c2ccccc2)cc1,TGI,HL-60(TB) leukemia,> 100 µM
same,TGI,HCT-116 colon,> 100 µM
same,TGI,HCC-2998 colon,> 100 µM
same,TGI,OVCAR-4 ovarian,> 100 µM
same,TGI,A498 renal,> 100 µM
same,TGI,NCI-H460 lung,> 100 µM
same,TGI,MOLT-4 leukemia,> 100 µM
same,TGI,SN12C renal,> 100 µM
same,TGI,SK-MEL-28 melanoma,> 100 µM
same,TGI,UO-31 renal,> 100 µM
same,TGI,DU-145 prostate,> 100 µM
same,TGI,MDA-MB-231 breast,> 100 µM
same,TGI,BT-549 breast,> 100 µM
same,TGI,SK-MEL-2 melanoma,> 100 µM
same,TGI,HOP-92 NSCLC,> 100 µM
same,TGI,UACC-62 melanoma,> 100 µM
same,TGI,COLO 205 colon,> 100 µM
same,TGI,LOX IMVI melanoma,> 100 µM
same,TGI,OVCAR-3 ovarian,> 100 µM
same,TGI,NCI-H226 lung,> 100 µM
same,TGI,KM12 colon,> 100 µM
same,TGI,MDA-MB-435,> 100 µM
same,TGI,RXF 393 renal,> 100 µM
same,TGI,EKVX NSCLC,> 100 µM
same,TGI,RPMI-8226 leukemia,> 100 µM
same,TGI,HT29 colon,> 100 µM
same,TGI,SF-268 CNS,> 100 µM
same,TGI,UACC-257 melanoma,> 100 µM
same,TGI,SK-MEL-5 melanoma,> 100 µM
same,TGI,CAKI-1 renal,> 100 µM
same,TGI,SNB-19 CNS,> 100 µM
same,TGI,PC-3 prostate,> 100 µM
same,TGI,K-562 leukemia,> 100 µM
same,TGI,HOP-62 NSCLC,> 100 µM
same,TGI,MDA-N,> 100 µM
same,TGI,MALME-3M melanoma,> 100 µM
same,TGI,TK-10 renal,> 100 µM
same,TGI,SW-620 colon,> 100 µM
same,TGI,ACHN renal,> 100 µM
same,TGI,786-0 renal,> 100 µM
same,TGI,NCI-H522 lung,> 100 µM
same,TGI,CCRF-CEM leukemia,> 100 µM
same,TGI,SF-295 CNS,> 100 µM
same,TGI,NCI-H23 lung,> 100 µM
same,TGI,OVCAR-5 ovarian,> 100 µM
same,TGI,HCT-15 colon,> 100 µM
same,TGI,MCF7 breast,> 100 µM
same,TGI,U251 CNS,> 100 µM
same,TGI,HS 578T breast,> 100 µM
same,TGI,SK-OV-3 ovarian,> 100 µM
same,TGI,IGROV1 ovarian,> 100 µM
CCOP(C)(=O)C(Cc1c[nH]c2ccccc12)C(=O)O (stereo unspecified),TGI,HL-60(TB) leukemia,> 100 µM
same,TGI,HCT-116 colon,> 100 µM
same,TGI,A549 NSCLC,> 100 µM
same,TGI,HCC-2998 colon,> 100 µM
same,TGI,A498 renal,> 100 µM
same,TGI,SNB-75 CNS,> 100 µM
same,TGI,T-47D breast,> 100 µM
same,TGI,MOLT-4 leukemia,> 100 µM
same,TGI,SN12C renal,> 100 µM
same,TGI,SK-MEL-28 melanoma,> 100 µM
same,TGI,UO-31 renal,> 100 µM
same,TGI,DU-145 prostate,> 100 µM
same,TGI,MDA-MB-231 breast,> 100 µM
same,TGI,BT-549 breast,> 100 µM
same,TGI,SK-MEL-2 melanoma,> 100 µM
same,TGI,HOP-92 NSCLC,> 100 µM
same,TGI,UACC-62 melanoma,> 100 µM
same,TGI,SR leukemia,> 100 µM
same,TGI,COLO 205 colon,> 100 µM
same,TGI,OVCAR-3 ovarian,> 100 µM
same,TGI,KM12 colon,> 100 µM
same,TGI,MDA-MB-435,> 100 µM
same,TGI,EKVX NSCLC,> 100 µM
same,TGI,RPMI-8226 leukemia,> 100 µM
same,TGI,HT29 colon,> 100 µM
same,TGI,SF-268 CNS,> 100 µM
same,TGI,SK-MEL-5 melanoma,> 100 µM
same,TGI,CAKI-1 renal,> 100 µM
same,TGI,SNB-19 CNS,> 100 µM
same,TGI,PC-3 prostate,> 100 µM
same,TGI,K-562 leukemia,> 100 µM
same,TGI,HOP-62 NSCLC,> 100 µM
same,TGI,OVCAR-8 ovarian,> 100 µM
same,TGI,MDA-N,> 100 µM
same,TGI,MALME-3M melanoma,> 100 µM
same,TGI,SW-620 colon,> 100 µM
same,TGI,ACHN renal,> 100 µM
same,TGI,786-0 renal,> 100 µM
same,TGI,NCI-H522 lung,> 100 µM
same,TGI,CCRF-CEM leukemia,> 100 µM
same,TGI,M14 melanoma,> 100 µM
same,TGI,SF-295 CNS,> 100 µM
same,TGI,OVCAR-5 ovarian,> 100 µM
same,TGI,HCT-15 colon,> 100 µM
same,TGI,MCF7 breast,> 100 µM
same,TGI,U251 CNS,> 100 µM
same,TGI,NCI/ADR-RES ovarian,> 100 µM
same,TGI,SK-OV-3 ovarian,> 100 µM
same,TGI,SF-539 CNS,> 100 µM
same,TGI,IGROV1 ovarian,> 100 µM
Cc1ccc(CC(=O)Nc2ccc(NC(=O)/C=C/NC(=O)/C=C/c3ccc(-c4ccccc4)cc3)cc2C(=O)c2ccccc2)cc1,TGI,HL-60(TB) leukemia,54.4 µM
same,TGI,HCT-116 colon,2.96 µM
same,TGI,A549 NSCLC,4.32 µM
same,TGI,HCC-2998 colon,1.61 µM
same,TGI,OVCAR-4 ovarian,3.41 µM
same,TGI,A498 renal,5.31 µM
same,TGI,SNB-75 CNS,6.59 µM
same,TGI,NCI-H460 lung,4.6 µM
same,TGI,T-47D breast,18 µM
same,TGI,MOLT-4 leukemia,9.16 µM
same,TGI,SN12C renal,5.51 µM
same,TGI,SK-MEL-28 melanoma,9 µM
same,TGI,UO-31 renal,13.7 µM
same,TGI,DU-145 prostate,> 100 µM
same,TGI,MDA-MB-231 breast,5.65 µM
same,TGI,BT-549 breast,3.11 µM
same,TGI,SK-MEL-2 melanoma,5.79 µM
same,TGI,UACC-62 melanoma,4.87 µM
same,TGI,COLO 205 colon,4.53 µM
same,TGI,LOX IMVI melanoma,4.84 µM
same,TGI,OVCAR-3 ovarian,4.32 µM
same,TGI,NCI-H226 lung,6.15 µM
same,TGI,KM12 colon,14.6 µM
same,TGI,MDA-MB-435,10.8 µM
same,TGI,RXF 393 renal,3.52 µM
same,TGI,EKVX NSCLC,3.58 µM
same,TGI,RPMI-8226 leukemia,14.7 µM
same,TGI,HT29 colon,20.3 µM
same,TGI,SF-268 CNS,9.46 µM
same,TGI,UACC-257 melanoma,4.71 µM
same,TGI,SK-MEL-5 melanoma,5.14 µM
same,TGI,CAKI-1 renal,11.3 µM
same,TGI,SNB-19 CNS,16 µM
same,TGI,PC-3 prostate,3.48 µM
same,TGI,K-562 leukemia,> 100 µM
same,TGI,HOP-62 NSCLC,4.15 µM
same,TGI,OVCAR-8 ovarian,2.21 µM
same,TGI,MDA-N,6.61 µM
same,TGI,MALME-3M melanoma,11.5 µM
same,TGI,TK-10 renal,8.72 µM
same,TGI,SW-620 colon,3.44 µM
same,TGI,ACHN renal,10.9 µM
same,TGI,786-0 renal,3.34 µM
same,TGI,CCRF-CEM leukemia,8.84 µM
same,TGI,M14 melanoma,7.3 µM
same,TGI,SF-295 CNS,3.05 µM
same,TGI,NCI-H23 lung,4.2 µM
same,TGI,OVCAR-5 ovarian,5.77 µM
same,TGI,HCT-15 colon,9.53 µM
same,TGI,MCF7 breast,4.92 µM
same,TGI,U251 CNS,4.35 µM
same,TGI,HS 578T breast,3.74 µM
same,TGI,NCI/ADR-RES ovarian,> 100 µM
same,TGI,SK-OV-3 ovarian,4.36 µM
same,TGI,SF-539 CNS,3.67 µM
same,TGI,IGROV1 ovarian,2.16 µM
